Reference: patent US20030232101A1, “Topical formulations of resorcinols and cannibinoids and methods of use” (Immugen Pharmaceuticals, Inc., priority 2002, published 2003)
Where two headings read alike, the source gives them in different places.

What was measured:
HIV-1 = assay: HeLa CD4 LTR β-gal HIV-1 attachment assay (Experimental Example 1); format: cell-based; settings: for IC50: Human immunodeficiency virus 1, HeLa; for β-galactosidase production relative to background (cells alone+compounds): at all times; for inhibition of HIV attachment/entry: following a 24 h pre-incubation
HIV-1 (96USHIPS7 strain) = assay: HIV attachment assay in PBMCs (cell-associated p24); format: cell-based; settings: for Comments: effect on HIV attachment / % Control / pg p24: 15 μM; for Comments: effect on HIV attachment: pretreatment 0, 2, 4, 24 h; for virus binding relative to control: pretreated for 24 h
Description: ELISA kits were purchased from Coulter Electronics. The assay was performed according to the manufacturer's instructions. Control curves were generated in each assay to accurately quantitate the amount of p24 antigen in each sample. For experiments using cell lysates. Fifty thousand (5×10^4) viable cells were lysed in Coulter ELISA buffer and subjected to 1 round of freeze/thawed to liberate trapped p24 and p24 detected per manufacturers instructions. HIV capsid protein (p24) was quantitated spectrophotometrically at 450 nm using a Molecular Devices Vmax plate reader using a standard curve. Final concentrations were calculated from the optical density values using the Molecular Devices Soft Max software package.
The attachment assay with PBMCs was performed as follows. Briefly, 1×10^6 PHA/IL-2 PBMCs were incubated for 0, 2, 4 and 24 hours with IMG compounds and cannabidiol in polypropylene tubes. A pre-titered amount of HIV-1 (96USHIPS7 strain, obtained from the AIDS Research and Reference Reagent Program ) was added in the presence of compound and incubated for 3 h at 37° C. After incubation the cultures were washed 3 times (400×g, 10 min, 4° C.) with media (1:25,000 dilution of input p24), the cell pellets lysed with p24 lysing buffer (Coulter) and p24 content determined by ELISA.
PBMCs pretreated with compounds for 0, 2, 4, and 24 were incubated with cell-free HIV-1 for 3 h and the excess unbound HIV removed. The assessed the amount of HIV bound to the cell was then assessed by measuring cell-associated p24 content of total cell lysates.

HIV-1 strain RoJo = assay: PBMC time of addition assay (RT activity in supernatant at 6 days); format: cell-based; settings: for IC50: Human immunodeficiency virus 1, PBMC; for fold regain of potency (decrease in IC50): after the loss at 2 h; for fold increase in IC50: 24 h pretreatment
Text: (§1) Human peripheral blood mononuclear cells (PBMCs) from a minimum of 2 donors, that have been blasted with PHA and IL-2, were counted, viability determined by Trypan Blue dye exclusion and mixed in equal ratios. Pooled donors were used to minimize the variability observed between individual donors which results from quantitative and qualitative differences in HIV infection and overall response to the PHA and IL-2 of primary lymphocyte populations. The cells were resuspended at 1×10^6 cells /mL in RPMI 1640 without phenol red supplemented with 15% Fetal Bovine Serum (heat inactivated), 2 mM L-glutamine, 100 U/mL penicillin, 100 μg/mL streptomycin, 10 μg/mL gentamycin and IL-2 (20 U/mL, R&D Systems, Minneapolis, Minn.). Fifty microliters of cells were then distributed to the inner 60 wells of a 96 well round bottom microtiter culture plate in a standard format developed by the Infectious Disease Research department of Southern Research Institute. Each plate contains cell control wells (cells only), virus control wells (cells plus virus), and experimental wells (drug plus cells plus virus). Alternatively, cells were cultured in T25 cm^2 or T75 cm^2 tissue culture flasks at a starting density of 1×10^6 cells per ml. Serially diluted compounds were added to the microtiter plate or tissue culture flask followed by the appropriate pre-titered strain of HIV-1. For virus replication inhibition experiments the HIV-1 strain RoJo was used. This is a low passage presumable subtype B pediatric isolate with a syncytium inducing (SI) phenotype in MT-2 cells isolated by Southern Research Institute personnel. All samples were assayed in triplicate where possible with an accompanying determination of compound toxicity. The final volume per well in the microtiter plates was 200 μL. The final volume in the tissue culture flask varied depending upon experimental design and flask size. Assays were incubated for 6 days in a humidified atmosphere at 37° C., 5% CO^2, after which supernatants were collected, for analysis of RT activity and cell viability by MTS dye reduction. Culture were also examined microscopically, any abnormalities noted, and in the case of tissue culture flasks cell counts and viability determined by Trypan Blue Dye exclusion.
(§2) Time of addition assays were performed with PBMCs in two ways. For both assays, PBMCs were isolated and cultured under the conditions as described above. Time of addition assays were carried out in either a tissue culture flask format (T-75 cm^2) or in microtiter wells. In both cases due to the lack of plastic adherence and heterogeneity of the PBMC population for susceptibility to infection, it was not possible to use complete removal of virus following a timed adsorption to synchronize the infection and limit the assay to a single round of infection. Therefore, serial washing by partial removal of the media was used to reduce the concentration of virus and compound (if required) in the assay. Compound addition in relationship to antiviral activity was either assessed over a short addition interval immediately before or after virus addition or for up to 72 h post infection. For all assays virus replication was assessed at 6 days of culture by determining RT expression in cell-free supernatants. In the tissue culture flask format cells were counted and Trypan Blue Dye exclusion used to monitor compound cytotoxicity. Cell viability in the 96 well microtiter plate format was determined by MTS dye reduction. AZT was used as a positive control.
Reverse transcriptase activity was measured in cell-free supernatants. Tritiated thymidine triphosphate (NEN) (TTP) was resuspended in distilled H2O at 5 Ci/mL. Poly rA and oligo dT were prepared as a stock solution which was kept at −20° C. The RT reaction buffer was prepared fresh on a daily basis and consists of 125 μL 1.0 M EGTA, 125 μL dH2O, 110 μL 10% SDS, 50 μL 1.0 M Tris (pH 7.4), 50 μL 1.0 M DTT, and 40 μL 1.0 M MgCl2. […]

[1] = PBMC cell viability in time of addition assay (MTS / Trypan Blue); format: cell-based, Human; settings: human; treatment −4 h pre; read-out: TC50
Text: as §1, §2
(§3) At assay termination the assay plates were stained with the soluble tetrazolium-based dye MTS (CellTiter96® Reagent Promega) to determine cell viability and quantify compound toxicity. MTS is metabolized by the mitochondria enzymes of metabolically active cells to a soluble formazan product, allowing the rapid quantitative analysis cell viability and compound cytotoxicity. […] At termination of the assay 20 μL of MTS reagent was added per well and incubated for 4 h at 37° C. […]

[2] = test system: peripheral blood mononuclear cells (PBMCs); assay: as above; format: cell-based, Human; settings: read-out: TC50 (the source's name)
Text: as §1, §2, §3

Structure (SMILES)	IC50 (HIV-1; Experiment 1, pretreat 0 h) [µM]	IC50 (HIV-1; Experiment 1, pretreat 4 h) [µM]	IC50 (HIV-1; Experiment 1, pretreat 24 h) [µM]	IC50 (HIV-1; Experiment 2, pretreat 0 h) [µM]	IC50 (HIV-1; Experiment 2, pretreat 4 h) [µM]	IC50 (HIV-1; Experiment 2, pretreat 24 h) [µM]	β-galactosidase production relative to background (cells alone+compounds) (HIV-1)	inhibition of HIV attachment/entry (HIV-1)	Comment: suppression of β-galactosidase activity (HIV-1; pretreat 0 h)	Comment: suppression of β-galactosidase activity (HIV-1; pretreat 4 h)	Comment: suppression of β-galactosidase activity (HIV-1; pretreat 24 h)	Comments: effect on HIV attachment (HIV-1 (96USHIPS7 strain))	% Control (HIV-1 (96USHIPS7 strain); time 0 h) [%]	pg p24 (HIV-1 (96USHIPS7 strain); time 0 h) [pg]	% Control (HIV-1 (96USHIPS7 strain); time 2 h) [%]	pg p24 (HIV-1 (96USHIPS7 strain); time 2 h) [pg]	% Control (HIV-1 (96USHIPS7 strain); time 4 h) [%]	pg p24 (HIV-1 (96USHIPS7 strain); time 4 h) [pg]	% Control (HIV-1 (96USHIPS7 strain); time 24 h) [%]	pg p24 (HIV-1 (96USHIPS7 strain); time 24 h) [pg]	also measured
CC(C)=CCCC1(C)CCc2c(O)cc(C(C)(C)CCCC(C)C)cc2O1 (stereo not drawn) [IMG508, 3,4-Dihydro-2-methyl-2-(4-methyl-3-pentenyl)-7-(1,1,5-trimethylhexyl)-2H-1-benzopyran-5-ol]	16	10.8	7.4	0.9	11	2.6	suppressed β-galactosidase production below background	consistent inhibition	Suppression of β-galactosidase activity,	Suppression of β-galactosidase activity	Suppression of β-galactosidase activity,	No significant effect	81.3	312	85.4	328	72.7	279	111.5	428	Comment: transient suppression lost at lower concentrations (HIV-1; pretreat 0 h): Transient suppression lost with at lower; Comment: transient suppression lost at lower concentrations (HIV-1; pretreat 24 h): Transient suppression lost with at lower; virus binding relative to control (HIV-1 (96USHIPS7 strain)): return to control levels of virus binding; fold decrease in IC50 (HIV-1 strain RoJo; 4 h pretreatment): 4-fold decrease in IC50; IC50 (HIV-1 strain RoJo; 4 h, treatment −4 h pre): 6.2 µM; IC50 (HIV-1 strain RoJo; 6 h, treatment 6 h post): 22.5 µM; IC50 (HIV-1 strain RoJo; addition prior to infection, pre-treatment 0 h): 14.2 µM; IC50 (HIV-1 strain RoJo; addition prior to infection, pre-treatment 2 h): 10.4 µM; IC50 (HIV-1 strain RoJo; addition prior to infection, pre-treatment 4 h): 4.1 µM; IC50 (HIV-1 strain RoJo; addition prior to infection, pre-treatment 24 h): 11.9 µM; IC50 (HIV-1 strain RoJo; treatment at infection): 15.7 µM; CC50 at 6 days [1]: > 100 µM; CC50 ([2]; treatment 6 h post): > 100 µM; CC50 ([2]; treatment at infection): > 100 µM
C=C(C)[C@@H]1CCC(C)=C[C@H]1c1c(O)cc(CCCCC)cc1O [Cannabidiol, reference compound]	14.1	6.8	1.2	1.3	28	1.4	suppressed β-galactosidase production below background	consistent inhibition	Exp. 1 suppression of β-galactosidase	Suppression of β-galactosidase activity	Suppression of β-galactosidase activity	No significant effect	82.6	317	74.5	286	90.9	349	114.3	439	virus binding relative to control (HIV-1 (96USHIPS7 strain)): return to control levels of virus binding; fold loss of activity (potency) (HIV-1 strain RoJo; 2 h pretreatment, listed as cannabidiol): approximately 10 fold; fold regain of potency (decrease in IC50) (HIV-1 strain RoJo; 4 h pretreatment): activity at 2 , regain 3.3-fold; fold regain of potency (decrease in IC50) (HIV-1 strain RoJo; 4 h pretreatment, listed as cannabidiol): 3.3 fold; fold increase in IC50 (HIV-1 strain RoJo): fold at 4 h then a 17-; fold increase in IC50 (HIV-1 strain RoJo; listed as cannabidiol): 17 fold; IC50 (HIV-1 strain RoJo; addition prior to infection, pre-treatment 0 h, read-out: IC50): 0.58 µM; IC50 (HIV-1 strain RoJo; addition prior to infection, pre-treatment 2 h, read-out: IC50): 5 µM; IC50 (HIV-1 strain RoJo; addition prior to infection, pre-treatment 4 h, read-out: IC50): 1.5 µM; CC50 at 6 days [1]: > 100 µM; CC50 ([2]; treatment 6 h post): > 100 µM; CC50 ([2]; treatment at infection): > 100 µM
